Laboratory results as given in patent US20100016335A1, “NOVEL AMINOPYRIDINE DERIVATIVES HAVING AURORA A SELECTIVE INHIBITORY ACTION” (priority 2006, published 2010).

How the values were obtained:
[1] = tested on: Human cervical cancer cells (HeLa S3); experiment: Effect by combined use of drugs in cells (docetaxel), WST-8 method; format: cell-based; conditions: HeLa S3, three days; for inhibition at 0.3 µM / inhibition at 1 µM / inhibition at 0.1 µM: Homo sapiens, HeLa S3, 72 h, read-out: Cell growth inhibitory effect by sole administration of the compound of Example (%); for inhibition at 0.3 µM: compound 0.3 μM alone; for inhibition at 1 µM: compound 1.0 μM alone; for inhibition at 0.1 µM: compound 0.1 μM alone
Experimental: Fetal calf serum (FCS) was purchased from Moregate Biotech, DMEM medium from Invitrogen Corp., docetaxel (tradename: Taxere) from Sigma-Aldrich, Inc., and WST-8 from Kishida Chemical Co., Ltd.
(§1) Human cervical cancer cells (HeLa S3) were obtained from the American Type Culture Collection (ATCC).
Cells were suspended in a DMEM medium containing 10% FCS, and the cell suspension was dispensed to two 96-well plastic plates at a rate of 750 cells/100 microliters per well. The plates were incubated overnight in 5% CO2-95% air at 37° C. A drug was subjected to graded dilution in dimethylsulfoxide and further diluted with DMSO or with a DMEM medium containing 10% FCS and also containing 0.6 nM docetaxel. Then, the dilutions were each dispensed to one of the plates on which cells had been disseminated in advance, at a rate of 100 microliters per well. The final concentration of docetaxel at this stage was 0.3 nM. Also, the concentrations in the case of sole administration of the compound according to the invention were 0.003, 0.01, 0.03, 0.1, 0.3, 1, 3 and 10 μM. The plates were incubated for further three days in 5% CO2-95% air at 37° C. Cell growth after incubation was measured by the WST-8 method (H. Tominaga, et al., Anal. Commun., 36, 47-50 (1999)). Here, the WST-8 method refers to a method in which 20 microliters of a WST-8 reagent solution is added to each well, incubation is conducted at 37° C. for 60 minutes, the plate is stirred, and the amount of formazan produced is measured by a colorimetric method to determine the inhibitory rate of the drug. The growth inhibitory effects of docetaxel and of the compound according to the invention were determined, with the value obtained in sole treatment of DMSO being defined as 0%.

[2] = biological target: T1, GST-tagged human Aurora B(AurB)/His-tagged human INCENP complex proteins (Homo sapiens, UniProt Q96GD4); experiment: Aurora B inhibitory activity (Method A, IMAP assay kit); format: biochemical; conditions: 40 μM ATP, 25° C., 45 minutes
T1 construct: GST; purchased Carna Biosciences, Inc
T1 sequence (Q96GD4 whole entry): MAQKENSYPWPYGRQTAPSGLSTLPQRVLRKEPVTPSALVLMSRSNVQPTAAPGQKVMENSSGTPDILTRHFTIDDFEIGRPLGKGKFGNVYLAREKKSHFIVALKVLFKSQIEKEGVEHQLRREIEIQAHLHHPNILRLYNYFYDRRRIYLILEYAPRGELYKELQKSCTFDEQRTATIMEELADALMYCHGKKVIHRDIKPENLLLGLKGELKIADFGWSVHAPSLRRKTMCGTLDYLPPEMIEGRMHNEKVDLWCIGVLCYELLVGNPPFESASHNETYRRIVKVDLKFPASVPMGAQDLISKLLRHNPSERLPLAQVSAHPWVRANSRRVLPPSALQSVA
T1 sequence (Q9NQS7 803-916 partner limits assumed): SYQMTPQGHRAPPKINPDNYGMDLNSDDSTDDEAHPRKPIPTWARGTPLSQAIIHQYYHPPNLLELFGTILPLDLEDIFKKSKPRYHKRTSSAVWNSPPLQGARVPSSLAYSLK
Experimental: An assay development kit for IMAP (registered trademark) (Aurora B), purchased from Carna Biosciences, Inc., was used for phosphorylation reaction, and the phosphorylation of a substrate was detected using the IMAP technology. […] Using the same, the phosphorylation reaction was conducted in accordance with a partially revised protocol attached to the kit, and then the phosphorylation of the substrate was detected using the IMAP technology.
For the phosphorylation reaction, 384 well plate was used, and the reaction volume was 10 μl/well. The composition of the reaction buffer (assay buffer) is comprised of 20 mM of HEPES buffer (pH 7.4), 0.01% Tween-20, and 2 mM of dithiothreitol (DTT). Thereto, AurB/INCENP complex protein, 100 nM of the substrate, and 40 μM of ATP, and 1 mM of magnesium salt were added, and then the reaction was conducted at 25° C. for 45 minutes. Thereafter, in order to terminate and detect the reaction, 30 μl of the IMAP (registered trademark) binding reagent (IMAP Progressive Binding Reagent, R7284) that had been diluted (1:400) in the 1× IMAP binding buffer A (IMAP Progressive Binding Buffer A, 5× stock, R7282) was added to each well.
(§2) The compound to be tested was added to the reaction system such that a dilution series of the compound in DMSO was prepared, and then 0.5 μL of this solution was added for the testing to each well. Each control well was provided by adding 0.5 μL of DMSO to the well in place of the DMSO solution containing the compound to be tested.

[3] = tested on: Human cervical cancer cells (HeLa S3); experiment: Cell growth inhibitory effect, WST-8 method; format: cell-based; conditions: Homo sapiens, 72 h; HeLa S3, three days incubation; read-out: Cell growth inhibitory effect (HeLaS3) (IC50)
Experimental: Fetal calf serum (FCS) was purchased from Moregate Biotech, and DMEM medium was purchased from Invitrogen Corp. WST-8 was purchased from Kishida Chemical Co., Ltd.
as §1
Cells were suspended in a DMEM medium containing 10% FCS, and the cell suspension was dispensed to a 96-well plastic plate at a rate of 750 cells/100 microliters per well. The plate was incubated overnight in 5% CO2-95% air at 37° C. A drug was subjected to graded dilution in dimethylsulfoxide and further diluted with a DMEM medium containing 10% FCS. Then, the dilution was dispensed to the plate on which cells had been disseminated in advance, at a rate of 100 microliters per well. The plate was incubated for further three days in 5% CO2-95% air at 37° C. Cell growth after incubation was measured by the WST-8 method (H. Tominaga, et al., Anal. Commun., 36, 47-50 (1999)). Here, the WST-8 method refers to a method in which 20 microliters of a WST-8 reagent solution is added to each well, incubation is conducted at 37° C. for 60 minutes, the plate is stirred, and the amount of formazan produced is measured by a […] method to determine the inhibitory rate of the drug.

[4] = biological target: T2, human Aurora A (Homo sapiens, UniProt O14965); experiment: Aurora A inhibitory activity (IMAP fluorescence polarization phosphorylation assay); format: biochemical; conditions: 20 μM ATP, 30° C., 120 minutes
T2 construct: His (N); made in house; host or cells: Escherichia coli BL21-CodonPlus(DE3)-RIL
T2 sequence (O14965 1-403): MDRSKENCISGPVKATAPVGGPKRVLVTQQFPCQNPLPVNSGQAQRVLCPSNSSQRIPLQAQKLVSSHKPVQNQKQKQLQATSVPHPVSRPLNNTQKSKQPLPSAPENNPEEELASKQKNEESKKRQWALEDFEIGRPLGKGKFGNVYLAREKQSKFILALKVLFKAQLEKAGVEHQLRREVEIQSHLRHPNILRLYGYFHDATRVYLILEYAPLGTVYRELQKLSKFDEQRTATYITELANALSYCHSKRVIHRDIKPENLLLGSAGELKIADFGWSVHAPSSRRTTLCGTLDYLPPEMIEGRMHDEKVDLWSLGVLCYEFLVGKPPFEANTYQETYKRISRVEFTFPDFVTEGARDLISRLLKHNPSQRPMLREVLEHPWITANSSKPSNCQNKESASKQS
Description: cDNA of N-terminal His-tagged human Aurora A was integrated into an expression vector, which was then highly expressed in Escherichia coli BL21-CodonPlus(DE3)-RIL cells. The Escherichia coli was harvested and lysed, and then the His-tagged human Aurora A protein was applied onto a nickel chelate column and eluted from the column with imidazole. The active fractions were desalted with a desalting column to give a purified enzyme.
For the phosphorylation reaction, the method by Upstate, Inc. [Kinase Profiler™ Assay Protocols] was referred to, and phosphorylation of the substrate was detected using IMAP® technology (Molecular Devices, Co. Ltd.) (Gaudet E W. et. al, J. Biomol. Screen, 8, 164-175 (2003)). Concretely, the phosphorylation reaction and the detection were carried out as follows:
The phosphorylation reaction was conducted using 384 well plate, and the reaction volume was 10 μl/well. The reaction buffer is comprised of 50 mM Tris-chloride buffer (pH 7.4), 15 mM magnesium acetate, and 0.2 mM ethylenediamine-N,N,N′,N′-tetraacetic acid (EDTA). Thereto, the purified Aurora A protein, 100 nM of the peptide substrate, and 20 μM of adenosine 5′-triphosphate (ATP) were added, and then the reaction was carried out at 30° C. for 120 minutes.
Thereafter, in order to terminate and detect the reaction, 30 μl of the IMAP (registered trademark) binding reagent (IMAP Progressive Binding Reagent, R7284) that had been diluted (1:400) in the 1×IMAP binding buffer A (IMAP Progressive Binding Buffer A, 5× stock, R7282) was added to each well. The solution stood still for 60 minutes in the dark, and then fluorescence polarization was measured using a high-end microplate reader (excitation wavelength: 485 nm; emission wavelength: 520 nm).
as §2, with “in dimethylsulfoxide (DMSO)” for “in DMSO”

[5] = compound 0.3 μM + docetaxel 0.3 nM
[6] = compound 1.0 μM + docetaxel 0.3 nM
[7] = compound 0.1 μM + docetaxel 0.3 nM

Row | Structure (SMILES) | IC50 [2] [nM] | IC50 [3] [nM] | IC50 [4] [nM] | inhibition at 0.3 µM [1] [%] | inhibition at 1 µM [1] [%] | Cell growth inhibitory effect by combined administration of docetaxel and the compound of Example (%) [1, 5] [%] | Cell growth inhibitory effect by combined administration of docetaxel and the compound of Example (%) [1, 6] [%] | inhibition at 0.1 µM [1] [%] | Cell growth inhibitory effect by combined administration of docetaxel and the compound of Example (%) [1, 7] [%]
1 | NC(=O)[C@]1(Cc2cccc(Nc3cc[nH]n3)n2)CC[C@@H](Oc2cccc(Cl)c2F)CC1 [Example 11, trans-4-(3-chloro-2-fluorophenoxy)-1-((6-(1H-pyrazol-3-ylamino)pyridin-2-yl)methyl)cyclohexanecarboxamide] | 750 | 2800 | 1.8 | 15.1 | 25.4 | 72.1 | 84.5 |  | 
2 | O=c1[nH]nc([C@]2(Cc3cccc(Nc4cc[nH]n4)n3)CC[C@@H](Oc3cccc(C(F)(F)F)c3F)CC2)o1 [Example 20, 5-(trans-4-(2-fluoro-3-(trifluoromethyl)phenoxy)-1-((6-(1H-pyrazol-3-ylamino)pyridin-2-yl)methyl)cyclohexyl)-1,3,4-oxadiazol-2(3H)-one] | 660 | 900 | 1 | 25.9 | 49.8 | 85.0 | 94.4 |  | 
3 | O=c1[nH]nc([C@]2(Cc3cccc(Nc4cc[nH]n4)n3)CC[C@@H](Oc3cccc(Cl)c3F)CC2)o1 [Example 23, 5-(trans-4-(3-chloro-2-fluorophenoxy)-1-((6-(1H-pyrazol-3-ylamino)pyridin-2-yl)methyl)cyclohexyl)-1,3,4-oxadiazol-2(3H)-one] | 490 | 760 | 0.39 | 36 |  | 87.4 |  | 3.7 | 71.5
4 | Cn1nc([C@]2(Cc3cccc(Nc4cc[nH]n4)n3)CC[C@@H](Oc3cccc(Cl)c3F)CC2)oc1=O [Example 26, 5-(trans-4-(3-chloro-2-fluorophenoxy)-1-((6-(1H-pyrazol-3-ylamino)pyridin-2-yl)methyl)cyclohexyl)-3-methyl-1,3,4-oxadiazol-2(3H)-one] | 800 | 3300 | 1.4 | 11.8 | 18.2 | 67.3 | 88.5 |  | 

The next lines start with results.

Row | IC50 [2] [nM] | IC50 [3] [nM] | IC50 [4] [nM] | Structure (SMILES) | inhibition at 0.3 µM [1] [%] | inhibition at 1 µM [1] [%] | Cell growth inhibitory effect by combined administration of docetaxel and the compound of Example (%) [1, 5] [%] | Cell growth inhibitory effect by combined administration of docetaxel and the compound of Example (%) [1, 6] [%] | inhibition at 0.1 µM [1] [%] | Cell growth inhibitory effect by combined administration of docetaxel and the compound of Example (%) [1, 7] [%]
5 | 870 | 1760 | 2 | NC(=O)[C@]1(Cc2cncc(Nc3cc[nH]n3)n2)CC[C@@H](Oc2cccc(Cl)c2F)CC1 [Example 15, trans-4-(3-chloro-2-fluorophenoxy)-1-((6-(1H-pyrazol-3-ylamino)pyrazin-2-yl)methyl)cyclohexanecarboxamide] | 17 | 42.4 | 76.4 | 90.8 |  | 
6 | 200 | 900 | 0.49 | CONC(=O)[C@]1(Cc2cccc(Nc3nccs3)n2)CC[C@@H](Oc2cccc(Cl)c2F)CC1 [Example 18, trans-4-(3-chloro-2-fluorophenoxy)-N-methoxy-1-((6-(1,3-thiazol-2-ylamino)pyridin-2-yl)methyl)cyclohexanecarboxamide] | 21.3 |  | 77.4 |  | 7.4 | 61.5
7 | 130 | 1150 | 0.12 | Fc1c(Cl)cccc1O[C@H]1CC[C@](Cc2cccc(Nc3cc[nH]n3)n2)(c2n[nH]c(=S)o2)CC1 [Example 24, 5-(trans-4-(3-chloro-2-fluorophenoxy)-1-((6-(1H-pyrazol-3-ylamino)pyridin-2-yl)methyl)cyclohexyl)-1,3,4-oxadiazole-2(3H)-thione] | 25.4 |  | 87.8 |  | 0.5 | 72.8
